Here are results for two molecules from patent US12404243B2, “Inhibitors of the Wnt/beta-catenin pathway” (The Regents of the University of California, priority 2018, dated 2025).

One assay has as its system SW480 tumor xenografts. In words: Mouse xenografts of SW480 cells. The class given is in vivo, nude mice. How it is done:
5×10^5 of SW480 cells were injected subcutaneously into the flank area of 6-8-week-old nude mice. Tumor volume was measured by using an electronic caliper and calculated with the formula length×width^2×0.5, every 2 days. 12 days after inoculation, tumor bearing mice were administered Wnt inhibitors (dissolved in 10% DMSO+20% Cremophor EL+70% normal saline) via intraperitoneal injection for 5 days per week for 10 days at 10 mg/kg. Animal body weights were measured before drug treatments and at the end of the experiments. At the end of the experiments, animals were euthanized with carbon dioxide, followed by cervical dislocation. The tumors were dissected and weighed on the digital balance. We housed mice in pathogen-free facilities under 12-h light and 12-h dark cycle. The animal protocol and experimental procedures were approved by the Division of Laboratory Animal Medicine of UCLA and were in accordance with the US National Institute of Health guidelines.

Assay [1] has as its system Wnt/β-catenin-mediated transcription. Nature of the assay: TCF-luciferase activity assay in 293T/Top/β-cat* cells. Particulars: summary of FIGS. 5A, B (293T/Top cells + LiCl) and 6A-C (293T/Top/β-cat* cells). The assay is classed as cell-based. How it is done: (§1) 293T cells were maintained in DMEM medium containing 10% FBS and antibiotics (penicillin and streptomycin) at 37° C. in 5% CO2. Cells were stably infected with lentiviruses expressing the TopFlash reporter (293T/Top cells). The β-catenin mutant (β-cat*, the constitutively active mutant) construct was prepared using the retroviral expression vector by standard PCR. For viral transduction, retrovirus was obtained by co-trasfection of pQCXIP-β-cat* with packaging plasmids into 293T cells following the manufacturer's instructions. 293T/Top stable cells were seeded in 10 cm dish and incubated overnight. The next day cells were treated with retroviral particles. After 12 hours, the medium was replaced with fresh medium. 2 days post virus infection, the cells were selected with puromycin for 5 days to generate the 293T/Top/β-cat* stable cell line.
293 T/Top/β-cat* cells were plated at 40%-50% confluences in 12-well plate for 8 hours and then treated with Wnt inhibitors overnight. The luciferase activity of total cell lysates was measured using Luciferase Assay System (Promega). The related TCF-luciferase activity was normalized against the protein concentration of each cell lysate sample.

The test system is the same in assay [2]. Nature of the assay: Topflash reporter activity induced by LiCl in 293T/Top cells. As to conditions: 20 mM LiCl, increasing concentration of JC001 (FIG. 5A). The assay is classed as cell-based. The method, then: as §1

Take `CN(C)CCC(=O)N1C/C(=C\c2ccccc2)C(=O)/C(=C/c2ccccc2)C1` [JC001, 3,5-Di((E)-benzylidene)-1-(3-(dimethylamino)propanoyl)piperidin-4-one]: the tumor volumes result with SW480 tumor xenografts (SW480 xenografts, 10 mg/kg, day 12 to day 20 (FIG. 8A)) is “significantly reduced tumor volumes”. Further, in the assay on SW480 tumor xenografts (SW480 xenografts, 10 mg/kg, day 12 to day 20 (FIG. 8B)), the “actual tumor sizes at the end of treatment” value is given as “reduced the size of tumors recovered”. In the assay on SW480 tumor xenografts (SW480 xenografts, 10 mg/kg, day 12 to day 20 (FIG. 8C)), the “actual tumor weights at the end of treatment” value is “significantly reduced the weight of tumors recovered”. The Wnt/β-catenin-mediated transcription entry in assay [1] is given as “significantly inhibited”. Moreover, the “Topflash reporter activities induced by LiCl” value in assay [2] is “inhibit Topflash reporter activities”.

Consider `CN(C)CCOc1ccc(C(=O)NC2C/C(=C\c3ccc(F)c(F)c3)C(=O)/C(=C/c3ccc(F)c(F)c3)C2)cc1` (stereo not shown) [JC081, N-(3,5-Bis((E)-3,4-difluorobenzylidene)-4-oxocyclohexyl)-4-(2-(dimethylamino)ethoxy)benzamide], for which the tumor volume entry in the assay with SW480 tumor xenografts (SW480 xenografts, 10 mg/kg, day 12 to day 21 (FIG. 9A)) is “significantly reduce tumor volume”. The “tumor sizes at the end of treatment” value in the assay with SW480 tumor xenografts (SW480 xenografts, 10 mg/kg, day 12 to day 21 (FIG. 9B)) is “significantly reduced the size of the tumors recovered”. For the same molecule, in the assay on SW480 tumor xenografts (SW480 xenografts, 10 mg/kg, day 12 to day 21 (FIG. 9C)), the “tumor weights at the end of treatment” value was “significantly reduce the weight of tumors recovered”. The tumor growth result with SW480 tumor xenografts (mouse xenograft studies of human colon cancer, summary of FIGS. 7A-D, 8A-C, 9A-C) is recorded as “significantly inhibited the tumor growth”. In assay [1], the Wnt/β-catenin-mediated transcription result was “significantly inhibited”.
